Read-outs that look alike come from different tables or passages of the source.
Target: T1, human TrkA (Homo sapiens, UniProt P04629)
T1 construct: purchased Lifetechnologies PV3144
Experiment: Human TrkA inhibition assay
Format: biochemical
Conditions: human TrkA phosphorylation inhibition, ATP 500 μmol/L
Method: Seven point five L per well of human TrkA (PV3144, Lifetechnologies, final concentration: 1 nmol/L) suspended in the assay buffer (100 mmol/L 4-(2-hydroxyethyl)-1-piperazineethanesulfonic acid (HEPES), 10 mmol/L magnesium chloride, 0.003 vol % Brij-35, 0.004 vol % Tween20 and 1 mmol/L dithiothreitol (DTT)) was applied in a 384 well plate and the plate was pre-incubated for 15 min at room temperature with 0.4 μL of each compound (final concentration: 200 μmol/L-0.1 nM) dissolved in DMSO. Then, fluorescent substrate (FL-peptide 27, 760424, PerkinElmer, final concentration: 1.5 μmol/L) and ATP (final concentration 500 μmol/L) dissolved in the assay buffer was added in each well. After the incubation of 120 min at 37° C., fifteen μL of termination buffer (100 mmol/L HEPES, 40 mmol/L ethylenediaminetetraacetic acid (EDTA), 10 mmol/L magnesium chloride, 0.003 vol % Brij-35, 0.004 vol % Tween20, 1 mmol/L DTT and 0.16 vol % Coating Reagent 3) was added in each well to stop the enzyme reaction. Fluorescent intensities (FI) of phosphorylated and non-phosphorylated fluorescent substrates were measured by LabChip EZReader II (Caliper LifeSciences, Inc.), and conversion ratio (CR) was calculated by the following formula-1. The CR in the well applied with DMSO alone was used as a negative control and the CR in the well without applying TrkA was used as a positive control. The inhibitory effect of each compound on TrkA phosphorylation was calculated by the following formula-2. CR (%)=(FI of phosphorylated substrate/(FI of phosphorylated substrate+FI of non-phosphorylated substrate))×100 (Formula-1) Phosphorylation inhibition (%)=(1−(CR with compound treatment−CR of positive control)/(CR of negative control−CR of positive control))×100 (Formula-2)
IC50 values (nmol/L) were determined by the logistic regression using the inhibition data in 10 points of 3-fold dilution series at a compound concentration range of 2 μmol/L to 0.1 nmol/L, or 15 points of 3-fold dilution series at the range of 200 μmol/L to 0.04 nmol/L.

T1 sequence (P04629 33-796): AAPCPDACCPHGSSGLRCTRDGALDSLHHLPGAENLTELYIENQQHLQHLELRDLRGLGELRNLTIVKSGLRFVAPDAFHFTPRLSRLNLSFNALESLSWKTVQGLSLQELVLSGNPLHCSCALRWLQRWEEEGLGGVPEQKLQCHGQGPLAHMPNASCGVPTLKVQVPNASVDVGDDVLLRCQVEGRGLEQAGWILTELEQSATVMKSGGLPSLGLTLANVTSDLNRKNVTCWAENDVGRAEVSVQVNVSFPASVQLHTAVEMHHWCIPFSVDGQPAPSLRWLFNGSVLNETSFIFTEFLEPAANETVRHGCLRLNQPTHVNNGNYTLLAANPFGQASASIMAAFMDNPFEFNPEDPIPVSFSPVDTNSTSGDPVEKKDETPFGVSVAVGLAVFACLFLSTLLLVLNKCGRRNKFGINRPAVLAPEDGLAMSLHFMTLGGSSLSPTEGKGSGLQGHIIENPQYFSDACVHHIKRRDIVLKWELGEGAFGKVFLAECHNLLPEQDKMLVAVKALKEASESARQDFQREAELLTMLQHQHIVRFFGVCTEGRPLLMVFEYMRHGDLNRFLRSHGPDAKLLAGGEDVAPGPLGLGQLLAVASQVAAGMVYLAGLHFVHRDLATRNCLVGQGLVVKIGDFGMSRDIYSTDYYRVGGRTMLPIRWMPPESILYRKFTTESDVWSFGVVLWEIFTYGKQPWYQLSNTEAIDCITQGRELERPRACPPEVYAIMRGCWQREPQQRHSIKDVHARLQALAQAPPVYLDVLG

SMILES	IC50 (read-out: IC50_nM)	IC50 (read-out: IC50 value)
COCCN1C[C@@H](NC(=O)Nc2c(C)c(-c3ccnc(C(=O)NO)c3)nn2-c2ccccc2)[C@H](c2ccccc2)C1 (racemic) [Compound I-63]	< 100 nM	–
COCCN1C[C@@H](NC(=O)Nc2c(C)c(-c3ccnc(C(=O)NC4COC4)c3)nn2-c2ccccc2)[C@H](c2ccccc2)C1 (racemic) [Compound I-69]	< 100 nM	–
COCCN1C[C@@H](NC(=O)Nc2c(C)c(-c3ccnc(C(=O)NC4CCS(=O)(=O)CC4)c3)nn2-c2ccccc2)[C@H](c2ccccc2)C1 (racemic) [Compound I-73]	< 100 nM	–
COCCN1C[C@@H](NC(=O)Nc2c(C)c(-c3cnc(OC)c(C(=O)NC4CCCCC4)c3)nn2-c2ccccc2)[C@H](c2ccccc2)C1 (racemic) [Compound I-77]	< 100 nM	–
COCCN1C[C@@H](NC(=O)Nc2c(C)c(-c3cnc(OC)c(C(=O)NC4CCS(=O)(=O)CC4)c3)nn2-c2ccccc2)[C@H](c2ccccc2)C1 (racemic) [Compound I-79]	< 100 nM	–
COCCN1C[C@@H](NC(=O)Nc2c(C)c(-c3cnc(OC)c(C(=O)NC4CCC(F)(F)CC4)c3)nn2-c2ccccc2)[C@H](c2ccccc2)C1 (racemic) [Compound I-83]	< 100 nM	–
COCCN1C[C@@H](NC(=O)Nc2c(C)c(-c3ccc(N=S(C)(C)=O)nc3)nn2-c2ccccc2)[C@H](c2ccccc2)C1 (racemic) [Compound I-91]	< 100 nM	–
COCCN1C[C@@H](NC(=O)Nc2c(C)c(-c3ccnc(N=S(C)(C)=O)c3)nn2-c2ccccc2)[C@H](c2ccccc2)C1 (racemic) [Compound I-96]	< 100 nM	–
COCCN1C[C@@H](NC(=O)Nc2c(C)c(-c3cnc4c(c3)nc(CO)n4C)nn2-c2ccccc2)[C@H](c2ccccc2)C1 (racemic) [Compound I-97]	< 100 nM	–
COCCN1C[C@@H](NC(=O)Nc2c(C)c(-c3cnn(C)c3)nn2-c2ccccc2)[C@H](c2cc(F)ncc2F)C1 (racemic) [Compound I-98]	< 100 nM	–
COCCN1C[C@@H](NC(=O)Nc2c(C)c(-c3cnc4c(c3)c(=O)n(C)n4C)nn2-c2ccccc2)[C@H](c2ccccc2)C1 (racemic) [Compound I-99]	< 100 nM	–
COCCN1C[C@@H](NC(=O)Nc2c(C)c(-c3cnc4c(c3)c(C)nn4C)nn2-c2ccccc2)[C@H](c2ccnc(F)c2)C1 (racemic) [Compound I-104]	< 100 nM	–
COCCN1C[C@@H](NC(=O)Nc2c(C)c(-c3cnc4c(c3)nnn4C)nn2-c2ccccc2)[C@H](c2ccnc(F)c2)C1 (racemic) [Compound I-105]	< 100 nM	–
COCCN1C[C@@H](NC(=O)Nc2c(C)c(-c3cnc4[nH]c(=O)oc4c3)nn2-c2ccccc2)[C@H](c2ccccc2)C1 (racemic) [Compound I-107]	< 100 nM	–
COCCN1C[C@@H](NC(=O)Nc2c(C)c(-c3cc(C(=O)N[C@@H]4CCCOC4)c(=O)n(C)c3)nn2-c2ccccc2)[C@H](c2ccccc2)C1 (racemic) [Compound I-109]	< 100 nM	–
COCCN1C[C@@H](NC(=O)Nc2c(C)c(-c3cc(C(=O)NC4CCS(=O)(=O)CC4)c(=O)n(C)c3)nn2-c2ccccc2)[C@H](c2ccccc2)C1 (racemic) [Compound I-110]	< 100 nM	–
COCCN1C[C@@H](NC(=O)Nc2c(C)c(-c3cc(C(=O)N[C@H]4CCOC4)c(=O)n(C)c3)nn2-c2ccccc2)[C@H](c2ccccc2)C1 (racemic) [Compound I-111]	< 100 nM	–
COCCN1C[C@@H](NC(=O)Nc2c(C)c(-c3cc(C(=O)N[C@@H]4CCOC4)c(=O)n(C)c3)nn2-c2ccccc2)[C@H](c2ccccc2)C1 (racemic) [Compound I-112]	< 100 nM	–
COCCN1C[C@@H](NC(=O)Nc2c(C)c(-c3cc(C(=O)NC4CC(F)(F)C4)c(=O)n(C)c3)nn2-c2ccccc2)[C@H](c2ccccc2)C1 (racemic) [Compound I-113]	< 100 nM	–
COCCN1C[C@@H](NC(=O)Nc2c(C)c(-c3cc(C(=O)NC[C@@H](C)O)c(=O)n(C)c3)nn2-c2ccccc2)[C@H](c2ccccc2)C1 (racemic) [Compound I-114]	< 100 nM	–
COCCN1C[C@@H](NC(=O)Nc2c(C)c(-c3cc(C(=O)NC(C)(C)CO)c(=O)n(C)c3)nn2-c2ccccc2)[C@H](c2ccccc2)C1 (racemic) [Compound I-115]	< 100 nM	–
COCCN1C[C@@H](NC(=O)Nc2c(C)c(-c3cnc(N=S(C)(C)=O)c(C)c3)nn2-c2ccccc2)[C@H](c2ccccc2)C1 (racemic) [Compound I-121]	< 100 nM	–
CCOc1ncc(-c2nn(-c3ccccc3)c(NC(=O)N[C@@H]3CN(CCOC)C[C@H]3c3ccccc3)c2C)cc1C(=O)NC (racemic) [Compound I-122]	< 100 nM	–
CNC(=O)c1cc(-c2nn(-c3ccccc3)c(NC(=O)N[C@@H]3CN(CCOC)C[C@H]3c3ccccc3)c2C)cnc1OCCO (racemic) [Compound I-123]	< 100 nM	–
CNC(=O)c1cc(-c2nn(-c3ccccc3)c(NC(=O)N[C@@H]3CN(CCOC)C[C@H]3c3ccccc3)c2C)cnc1OCCOC (racemic) [Compound I-124]	< 100 nM	–
CNC(=O)c1cc(-c2nn(-c3ccccc3)c(NC(=O)N[C@@H]3CN(CCOC)C[C@H]3c3ccccc3)c2C)cn(CCOC)c1=O (racemic) [Compound I-127]	< 100 nM	–
CCNC(=O)c1cc(-c2nn(-c3ccccc3)c(NC(=O)N[C@@H]3CN(CCOC)C[C@H]3c3ccccc3)c2C)cnc1OCC (racemic) [Compound I-129]	< 100 nM	–
CCNC(=O)c1cc(-c2nn(-c3ccccc3)c(NC(=O)N[C@@H]3CN(CCOC)C[C@H]3c3ccccc3)c2C)cnc1OCCOC (racemic) [Compound I-130]	< 100 nM	–

Now from value to compound:

IC50 (read-out: IC50_nM)	IC50 (read-out: IC50 value)	SMILES
< 100 nM	–	COCCN1C[C@@H](NC(=O)Nc2c(C)c(-c3cnc4c(c3)c(C(=O)OC)nn4C)nn2-c2ccccc2)[C@H](c2ccccc2)C1 (racemic) [Compound I-64]
< 100 nM	–	COCCN1C[C@@H](NC(=O)Nc2c(C)c(-c3cnc4c(c3)c(CO)nn4C)nn2-c2ccccc2)[C@H](c2ccccc2)C1 (racemic) [Compound I-65]
< 100 nM	–	COCCN1C[C@@H](NC(=O)Nc2c(C)c(-c3ccnc(C(=O)NC4CC(F)(F)C4)c3)nn2-c2ccccc2)[C@H](c2ccccc2)C1 (racemic) [Compound I-70]
< 100 nM	–	COCCN1C[C@@H](NC(=O)Nc2c(C)c(-c3ccnc(C(=O)NC4CCCCC4)c3)nn2-c2ccccc2)[C@H](c2ccccc2)C1 (racemic) [Compound I-71]
–	3.1 nM	COCCN1C[C@@H](NC(=O)Nc2c(C)c(-c3cnc4c(c3)oc(=O)n4C)nn2-c2ccccc2)[C@H](c2ccccc2)C1 (racemic) [Compound I-76]
< 100 nM	–	COCCN1C[C@@H](NC(=O)Nc2c(C)c(-c3cnc(OC)c(C(=O)NC4CC(F)(F)C4)c3)nn2-c2ccccc2)[C@H](c2ccccc2)C1 (racemic) [Compound I-81]
< 100 nM	–	COCCN1C[C@@H](NC(=O)Nc2c(C)c(-c3cnc4c(c3)c(C)nn4C)nn2-c2ccccc2)[C@H](c2ccccc2)C1 (racemic) [Compound I-89]
–	2.2 nM	COCCN1C[C@@H](NC(=O)Nc2c(C)c(-c3cnc4c(cnn4C)c3)nn2-c2ccccc2)[C@H](c2ccnc(F)c2)C1 (racemic) [Compound I-90]
< 100 nM	–	COCCN1C[C@@H](NC(=O)Nc2c(C)c(-c3cnc4c(c3)c(OC)nn4C)nn2-c2ccccc2)[C@H](c2ccccc2)C1 (racemic) [Compound I-95]
–	6.8 nM	COCCN1C[C@@H](NC(=O)Nc2c(C)c(-c3ccnc(C(=O)NOC)c3)nn2-c2ccccc2)[C@H](c2ccccc2)C1 (racemic) [Compound I-100]
< 100 nM	–	COCCN1C[C@@H](NC(=O)Nc2c(C)c(-c3cnc(OC)c(C(=O)NC4CS(=O)(=O)C4)c3)nn2-c2ccccc2)[C@H](c2ccccc2)C1 (racemic) [Compound I-101]
< 100 nM	–	COCCN1C[C@@H](NC(=O)Nc2c(C)c(-c3cncc(N=S(C)(C)=O)c3)nn2-c2ccccc2)[C@H](c2ccccc2)C1 (racemic) [Compound I-106]
< 100 nM	–	COCCN1C[C@@H](NC(=O)Nc2c(C)c(-c3cc(C(=O)NC4CCCCC4)c(=O)n(C)c3)nn2-c2ccccc2)[C@H](c2ccccc2)C1 (racemic) [Compound I-108]
< 100 nM	–	CNC(=O)c1cc(-c2nn(-c3ccccc3)c(NC(=O)N[C@@H]3CN(CCOC)C[C@H]3c3ccccc3)c2C)cnc1OCC(F)F (racemic) [Compound I-125]
< 100 nM	–	CNC(=O)c1cc(-c2nn(-c3ccccc3)c(NC(=O)N[C@@H]3CN(CCOC)C[C@H]3c3ccccc3)c2C)cnc1OCF (racemic) [Compound I-126]
< 100 nM	–	CNC(=O)c1cc(-c2nn(-c3ccccc3)c(NC(=O)N[C@@H]3CN(CCOC)C[C@H]3c3ccccc3)c2C)cnc1OC(F)F (racemic) [Compound I-128]
< 100 nM	–	CCNC(=O)c1cc(-c2nn(-c3ccccc3)c(NC(=O)N[C@@H]3CN(CCOC)C[C@H]3c3ccccc3)c2C)cnc1OCC(F)F (racemic) [Compound I-131]

Source: patent US10533006B2, “Nitrogen-containing heterocycle and carbocycle derivatives having TrkA inhibitory activity” (Shionogi & Co., Ltd., priority 2016, dated 2020)
